Results taken from US20250177412A1, “SMALL-MOLECULE INHIBITORS TARGETING THE BOB1/OCT1 INTERFACE” (NANTES UNIVERSITE, priority 2022, published 2025).

Legend:
[1] = molecular target: T1, POU domain of OCT1 (POU1) (Homo sapiens, UniProt P14859); assay: Thermal shift assay (TSA); format: binding; details: compound 10 μM, POU1 5 μM
T1 construct: 6xHis (pET28 N-terminal histidine tag) (N); made in house; host or cells: E. coli BL21
T1 sequence (P14859 280-438): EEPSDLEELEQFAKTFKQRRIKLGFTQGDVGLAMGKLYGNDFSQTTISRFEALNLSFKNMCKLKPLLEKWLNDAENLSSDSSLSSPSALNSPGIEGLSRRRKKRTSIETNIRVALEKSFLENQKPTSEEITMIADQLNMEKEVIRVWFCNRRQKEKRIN
Procedure: Following primers were used for the amplification:
POU1 and BOB1 proteins (each at a final concentration 5 μM), compound 005 (final concentration 10 μM), and 1× ProteOrange fluorescent dye (Lumiprobe, Russia) were mixed in triplicates in 100 μL of 0.1 M phosphate buffered saline pH 7.4 per and pipetted into 96-well 0.2-mL thin-wall PCR plates (Roche Life Science, Switzerland) sealed with optical-grade sealing film. Fluorescence data were acquired on a LightCycler® 96 Real Time PCR Instrument (Roche Life Science, Switzerland) with an excitation range of 470-533 nm. The fluorescence emission signal at […] was measured for data analysis. The temperature was held for 30 sec per degree from 37 to 98° C. (ramp rate of […]). The derivatives of the fluorescence signal as function of the temperature were used for further analysis.

[2] = tested on: memory B cells; assay: Immunoglobulin isotype production (LEGENDplex 8-plex); format: cell-based, human; details: day 7
Procedure: B cells were stimulated to differentiate into plasmablasts using a two-phase cell culture protocol as previously described. Briefly, B cells were seeded at 4×10^5 cells/mL in 24-well plates and activated during 4 days with 50 ng/mL recombinant human soluble CD40L (R&D Systems), 2.5 μg/mL CpG oligodeoxynucleotide (ODN) 2006 (Amidogen or Cayla Invivogen), 2 μg/mL F(ab′)2 fragment goat anti-human IgA+IgG+IgM (H+L) polyclonal Abs (anti-BCR) (Jackson ImmunoResearch Laboratories), and 50 U/mL human IL-2 (SARL Pharmaxie or Novartis). […] At days 0, 4 and 7, B cells were stained with viability marker LIVE/DEAD Fixable Aqua Dead Cell Stain (Thermofisher) to identify dead cells, followed by extracellular staining with anti-human mAbs: anti-CD20 FITC, anti-IgD BUV395, anti-CD27 BUV737, anti-CD38 BV605 (all from BD Biosciences) and analyzed by flow cytometry (FACSCelesta™, BD Biosciences). In some experiments, B cell apoptosis was evaluated by intracellular active caspase-3 staining (Caspase-3-PE, BD Biosciences).
Immunoglobulin isotypes were quantified using the Human Immunoglobulin Isotyping LEGENDplex 8-plex kit (BioLegend) according to the manufacturer's instructions. Data were collected on the BD FACSCanto™ II flow cytometer and analyzed using LEGENDplex Data Analysis Software.

[3] = tested on: naïve B cells; assay: In vitro plasmablast differentiation with naive B cells; format: cell-based, human; details: data not shown
Excerpt: Blood samples were obtained from healthy volunteers provided by Sanquin Blood Supply Foundation (Amsterdam, the Netherlands) or from Etablissement Français du Sang (Nantes, France) after written consent was obtained. Peripheral blood mononuclear cells (PBMCs) were isolated through Ficoll-Paque gradient centrifugation on Lymphoprep (Nycomed). Total B cells were isolated from freshly purified PBMCs by negative selection (B cell Isolation Kit II; Miltenyi Biotech, 130-091-151) on magnetic columns using autoMACS Pro Separator according to the manufacturer's instructions. […] Ultimately, purity of the MACS-isolated CD19^+ B cells, CD19^+CD27^+IgD^− memory B cells and CD19^+CD27^−IgD^+ […] was assessed by flow cytometry; purity was >90% for B cells, >65% for memory B cells, and >85% for naive B cells. […]
B cells were stimulated to differentiate into plasmablasts using a two-phase cell culture protocol as previously described. […] At days 0, 4 and 7, B cells were stained with viability marker LIVE/DEAD Fixable Aqua Dead Cell Stain (Thermofisher) to identify dead cells, followed by extracellular staining with anti-human mAbs: anti-CD20 FITC, anti-IgD BUV395, anti-CD27 BUV737, anti-CD38 BV605 (all from BD Biosciences) and analyzed by flow cytometry (FACSCelesta™, BD Biosciences). […]

Cc1ccc(NC(=O)C2CN(c3nc(NCCCc4ccc(F)cc4)nc(NCCC(=O)O)n3)c3ccccc3O2)cc1Cl (stereo not shown) [compound 005, 3-((4-(2-((3-chloro-4-methylphenyl)carbamoyl)-2,3-dihydro-4H-benzo[b][1,4]oxazin-4-yl)-6-((3-(4-fluorophenyl)propyl)amino)-1,3,5-triazin-2-yl)amino)propanoic acid] was tested, and the “increase of POU1 melting temperature” value [1] was “about 4 °C”, the “IgG1, IgG2, IgG3 and IgG4 production” value ([2]; 10 μM) was “significant decrease” and the “titers of all immunoglobulin subclasses” value ([2]; 15 and 20 μM) was “strongly suppressed”. The “effect on proliferation, CD38 and CD20 expression and plasmablast differentiation” value [3] was “comparable dose-dependent effect”.
